From patent publication US20090137643A1, “Methods for Inhibiting or Reversing Tau Filament Fibrillization” (priority 2003, published 2009) come the findings set out here.

Several values for one entry are separate records, joined by “and”; a condition that tells them apart may be missing. Equal values may be shown once. Entries after “also recorded” stand apart in the source; their conditions may differ. Read-outs that look alike come from different tables or passages of the source. Some results are limits rather than exact numbers.

Assay type in all cases: biochemical
The target in assay [1] is T1, htau40 (Homo sapiens, UniProt P10636).
T1 construct: polyhistidine; made in house
As to the kind of experiment: Tau aggregation: arachidonic acid-induced htau40 fibrillization, quantitative transmission electron microscopy. Further details: IC50 for inhibition of tau fibrillization relative to molar concentration of arachidonic acid: unit not given here. The following applies: for filament length distribution versus DMSO vehicle control: 3 hours at 37° C.; for IC50: N744 0.12-4.1 μM. The procedure: Tau Aggregation. Purified recombinant htau40 was polymerized as described previously (King et al., Biochemistry 38: 14851-14859 (1999); Wilson et al., Am. J. Pathol 150: 2181-2195 (1997); King et al., J. Neurochem 74: 1749-1757 (2000)). Under standard conditions, 4 μM (final concentration) htau40 was incubated with arachidonic acid in Assembly Buffer (10 mM 4-[2-hydroxyethyl]-1-piperazineethanesulfonic acid, 100 mM NaCl, and 5 mM DTT) at either room temperature or at 37° C. Fibrillization was induced by the addition of arachidonic acid (75-100 μM) and continued for 3 to 6 hours until analyzed by electron microscopy as described below. When present, N744 final concentration varied between 0.12 and 4.1 μM in aggregation assays. (N744 final concentration of up to 4.7 μM was used in disaggregation assays (see below)). Control reactions were normalized for DMSO vehicle, which was limited to no more than 5% (v/v) in all reactions.
(§1) Transmission Electron Microscopy. Aliquots (50 μl) of aggregation and disaggregation reactions were removed, fixed with glutaraldehyde (2%), and adsorbed (1 minute) onto 300 mesh formvar/carbon-coated copper grids (Electron Microscopy Sciences; Ft. Washington, Pa.). The resultant grids were washed with water, stained (1 minute) with 2% uranyl acetate (Electron Microscopy Sciences), washed again with water, blotted dry, and viewed in a Phillips CM 12 microscope operated at 65 kV. Three to five random images from each experimental condition were captured on film at 22,000× magnification, digitized, calibrated, and imported into Optimas 6.5.1 for quantitation of filament length and number as described previously (King et al., J. Neurochem 74: 1749-1757 (2000). An individual filament is defined as any object greater than 50 nm in its long axis. Filaments were counted manually. Filament counts are reported as an average±standard deviation for both total filament length and total filament number. Length distributions were quantified in 25 nm (assembly) or 50 nm (disassembly) wide bins.

Assay [2] concerns the target T2, htau40 filaments (Homo sapiens, UniProt P10636).
T2 construct: polyhistidine; made in house
The assay can be described thus: Tau disaggregation: preformed htau40 filaments, quantitative electron microscopy. The procedure:
Tau Disaggregation. Solutions of purified htau40 (4 μM) were polymerized under standard conditions as described above for 3.5 hours, then divided into two separate tubes. One tube received N744 at a final concentration of 4.7 μM, whereas the second tube received DMSO vehicle alone. Aliquots were removed from each sample after 0, 1, 3, 5, 9, 12, and 19 hours incubation and subjected to the electron microscopy assay described below. Control (no N744) reactions were normalized for DMSO vehicle, which was kept below 5.7% (v/v) in all reactions.
as §1
N744 Promotes tau Filament Disaggregation. […] To test this hypothesis, htau40 (4 μM) was polymerized with arachidonic acid (75 μM) over a 3.5 hour period after which time equal aliquots were treated with N744 (4.7 μM) or DMSO vehicle alone and filament numbers and lengths were measured over a 19 hour “chase” by electron microscopy. In the absence of N744, total htau40 filament length decreased 23±4% over this time period (FIG. 4). Because sample dilution was only 6% in the experimental paradigm, it appeared that DMSO alone destabilized tau filaments at these concentrations. In contrast, addition of N744 (4.7 μM) led to a more rapid decrease in total filament length so that 87±13% of total filament length was lost over the 19 hour time course. The initial rate of filament loss was well modeled as a first order decay (r^2=0.981; k=0.12±0.01 h^−1) under these conditions (FIG. 4).

For assay [3], the target named is T3, Aβ1-40 (Homo sapiens, UniProt P05067).
T3 construct: Human Aβ1-40 (Bachem; Philadelphia, Pa.); purchased Bachem
The assay can be described thus: Aβ1-40 aggregation, turbidity at 400 nm. The conditions noted are these: Aβ1-40 20 μM, 4.1 μM N744, 5 hours. The method, then:
Aβ1-40 Aggregation. Aggregation was initiated by diluting the Aβ stock solution to 20 μM final concentration in aggregation buffer (150 mM NaCl, 10 mM 2-[N-morpholino]ethanesulfonic acid, pH 6.2; final volume 300 μl). Turbidity resulting from Aβ aggregation in the presence (4.1 μM final concentration) and absence of […] was monitored as a function of time in a Beckman DU640B spectrophotometer at 400 nm versus a DMSO vehicle blank (Snyder et al., Biophys 67: 1216-1228 (1994); Evans et al., Proc. Natl. Acad. Sci U.S.A. 92: 763-767 (1995)). Cuvettes were vortexed before each reading. […] Selectivity of tau Fibrillization Antagonism. […] To determine whether amyloid binding was accompanied by fibrillization inhibitory activity, the ability of […] to inhibit Aβ1-40 assembly was examined. In the absence of ligand, Aβ1-40 (20 μM) polymerized spontaneously after a lag of about 80 minutes.

The target in assay [4] is T4, amylin (Homo sapiens, UniProt P10997).
T4 construct: purchased Bachem
T4 sequence (P10997 34-70 limits assumed): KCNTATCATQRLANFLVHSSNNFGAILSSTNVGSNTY
As to the kind of experiment: Amylin aggregation, qualitative electron microscopy. The conditions noted are these: amylin 50 μM, 4.1 μM N744, 24 hour period. The method, then: Amylin Aggregation. Aggregation was initiated by diluting the peptide in 10 mM Tris-HCl, pH 7.3 to a final concentration of 50 μM (Goldsbury et al., J. Struct. Biol. 130: 352-362 (2000)) in the presence or absence of 4.1 μM N744. Aliquots were removed after 0, 1, 3, 5, 7, and 24 hours and prepared for EM as described above.
The activity of N744 on another amyloid-forming protein, amylin (Goldsbury et al., J. Struct. Biol. 130: 352-362 (2000)), was also examined.

Setting [5] is: htau40 4 μM, arachidonic acid 75 μM, 3.5 hours at 37° C.

T2 sequence (P10636 1-441 isoform P10636-8): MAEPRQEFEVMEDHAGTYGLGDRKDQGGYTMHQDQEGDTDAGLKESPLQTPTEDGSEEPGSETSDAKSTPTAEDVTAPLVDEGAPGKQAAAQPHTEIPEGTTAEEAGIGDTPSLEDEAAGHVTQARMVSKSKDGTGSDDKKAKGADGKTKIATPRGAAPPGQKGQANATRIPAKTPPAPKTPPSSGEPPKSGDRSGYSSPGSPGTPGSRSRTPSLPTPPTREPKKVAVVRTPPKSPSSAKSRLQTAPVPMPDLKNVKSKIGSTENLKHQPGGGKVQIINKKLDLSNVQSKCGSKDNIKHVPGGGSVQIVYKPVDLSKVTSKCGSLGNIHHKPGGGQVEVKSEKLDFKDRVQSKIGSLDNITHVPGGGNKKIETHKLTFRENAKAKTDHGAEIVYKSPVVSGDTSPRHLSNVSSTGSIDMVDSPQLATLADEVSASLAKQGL
T1 sequence (P10636 1-441 isoform P10636-8): as above
T3 sequence (P05067 672-711 limits assumed): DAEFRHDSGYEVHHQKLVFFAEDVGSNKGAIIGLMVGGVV

`CCC(/C=C1\Sc2ccc(OC)cc2N1CCO)=C\c1sc2ccc(OC)cc2[n+]1CCO` [N744, 3-(2-hydroxyethyl)-2-[2-[[3-(2-hydroxyethyl)-5-methoxy-2-benzothiazolylidene]methyl]-1-butenyl]-5-methoxybenzothiazolium]: in assay [1], the “IC50 for inhibition of tau fibrillization relative to molar concentration of arachidonic acid” value is given as under 0.01. The “tau fibrillization (total number or total length of filaments)” value in assay [1] (4.1 μM N744, about 1:1 with htau40 4 μM, arachidonic acid 75 μM) was “greatly inhibited”. Also, the “filament length distribution versus DMSO vehicle control” value is “significant shortening” in assay [1] (N744 ≧1.2 μM, htau40 4 μM) and “did not differ significantly” in assay [1] (low N744 concentrations (≦410 nM), htau40 4 μM). Further, the “Hill slope, total filament length” value in assay [1] (setting [5]) stood at 1.84±0.14. Moreover, the “Hill slope, total filament number” value in assay [1] (setting [5]) turned out to be 1.61±0.10. Besides, the IC50 is 294 nM and < 300 nM and ~300 nM in assay [1] (htau40 4 μM, arachidonic acid 75 μM, 3.5 hours at 37° C., read-out: IC50, inhibition of total filament length); 272 ± 17 nM in assay [1] (htau40 4 μM, arachidonic acid 75 μM, 3.5 hours at 37° C., read-out: IC50, inhibition of total filament number). The “net first order rate of filament loss, corrected for dilution and DMSO vehicle” value in assay [2] (4.7 μM N744, htau40 4 μM) was 0.10 ± 0.02 h⁻¹. The “initial first order rate of decrease of total filament length” value in assay [2] (4.7 μM N744 added to filaments from htau40 4 μM, 19 hour chase) was found to be 0.12 ± 0.01 h⁻¹. The “filament number per length bin relative to DMSO only control” value in assay [2] (19 hours, 4.7 μM N744, 50 nm bins) is given as “significantly fewer filaments in every bin”. Besides, in assay [2] (after 19 hours incubation with 4.7 μM N744), the “total filament length as % of vehicle only control” value came to 13±2%. In addition, the “total filament length lost” value in assay [2] (over 19 hour time course, 4.7 μM N744) is 87±13%. In assay [3], the “effect on Aβ1-40 fibrillization” value is listed as “did not appreciably modulate the extent or half-life; also recorded: little effect”. For the same compound, in assay [4], the “effect on amylin fibrillization” value is on record as “did not interfere; also recorded: did not modulate”.
